This is an account of results in ChEMBL document CHEMBL1132085, “Analogues of 4,5-bis(3,5-dichlorophenyl)-2-trifluoromethyl-1H-imidazole as potential antibacterial agents” (1999).

Converted amounts (≈) assume the structure as drawn. Some results are limits rather than exact numbers.

Common to all, as to type: functional
Experiment [1] deals with Escherichia coli. The experiment can be described thus: Antibacterial activity against Escherichia coli (Ec).
The subject of the next experiment is Bacillus subtilis. The experiment can be described thus: Antibacterial activity against Bacillus subtilis (Bs).
For another experiment, the system named is Staphylococcus aureus. Description: Antibacterial activity against methicillin resistant Staphylococcus aureus (MRSA).
In experiment [2] the test system is Escherichia coli. The experiment can be described thus: Antibacterial activity against Escherichia coli +polymyxin (Ec+).

By MIC is commonly meant the lowest concentration that inhibits growth of the organism. Read a low MIC as greater potency. For the compound `O=Cc1nc(-c2cc(Cl)cc(Cl)c2)c(-c2cc(Cl)cc(Cl)c2)[nH]1`, the minimal inhibitory concentration (MIC) with Escherichia coli [1] was above 32 µg/mL; against Bacillus subtilis, 2 µg/mL (≈ 5.18 µM); in the experiment on Staphylococcus aureus, 2 µg/mL (≈ 5.18 µM); with Escherichia coli [2], above 32 µg/mL.

For the compound `Clc1cc(Cl)cc(-c2nc[nH]c2-c2cc(Cl)cc(Cl)c2)c1`, the MIC in the experiment on Escherichia coli [1] is above 32 µg/mL; with Bacillus subtilis, 4 µg/mL (≈ 11.2 µM); with Staphylococcus aureus, above 32 µg/mL; against Escherichia coli [2], 8 µg/mL (≈ 22.3 µM).

On to `Cc1nc(-c2cc(Cl)cc(Cl)c2)c(-c2cc(Cl)cc(Cl)c2)[nH]1`, for which the minimum inhibitory concentration (MIC) against Escherichia coli [1], with Bacillus subtilis, in the experiment with Staphylococcus aureus and in the experiment on Escherichia coli [2] was above 32 µg/mL in each case.

Regarding `COC(=O)c1nc(-c2cc(Cl)cc(Cl)c2)c(-c2cc(Cl)cc(Cl)c2)[nH]1`, the MIC with Escherichia coli [1], in the experiment with Bacillus subtilis, in the experiment on Staphylococcus aureus and in the experiment on Escherichia coli [2] was above 32 µg/mL each time.

In the case of `FC(F)(F)c1nc(-c2cc(Cl)cc(Cl)c2)c(-c2cc(Cl)cc(Cl)c2)[nH]1`, the minimal inhibitory concentration (MIC) was above 32 µg/mL in the experiment with Escherichia coli [1], 4 µg/mL (≈ 9.39 µM) in the experiment with Bacillus subtilis, 0.25 µg/mL (≈ 0.587 µM) against Staphylococcus aureus and 16 µg/mL (≈ 37.6 µM) against Escherichia coli [2].

For the compound `Cn1c(C(F)(F)F)nc(-c2cc(Cl)cc(Cl)c2)c1-c1cc(Cl)cc(Cl)c1`, the MIC is above 32 µg/mL against Escherichia coli [1], 4 µg/mL (≈ 9.09 µM) in the experiment with Bacillus subtilis, 8 µg/mL (≈ 18.2 µM) in the experiment on Staphylococcus aureus and above 32 µg/mL with Escherichia coli [2].

On to `Sc1nc(-c2cc(Cl)cc(Cl)c2)c(-c2cc(Cl)cc(Cl)c2)[nH]1`, for which the MIC against Escherichia coli [1], against Bacillus subtilis, against Staphylococcus aureus and in the experiment with Escherichia coli [2] was above 32 µg/mL in each case.

Turning to `CSc1nc(-c2cc(Cl)cc(Cl)c2)c(-c2cc(Cl)cc(Cl)c2)[nH]1`, the minimal inhibitory concentration (MIC) against Escherichia coli [1], in the experiment with Bacillus subtilis, against Staphylococcus aureus and against Escherichia coli [2] was above 32 µg/mL throughout.

For the compound `Oc1nc(-c2cc(Cl)cc(Cl)c2)c(-c2cc(Cl)cc(Cl)c2)[nH]1`, the minimal inhibitory concentration (MIC) in the experiment on Escherichia coli [1] is above 32 µg/mL; in the experiment on Bacillus subtilis it was 4 µg/mL (≈ 10.7 µM); with Staphylococcus aureus, 8 µg/mL (≈ 21.4 µM); against Escherichia coli [2], 8 µg/mL (≈ 21.4 µM).

Take `CCNC(=O)c1nc(-c2cc(Cl)cc(Cl)c2)c(-c2cc(Cl)cc(Cl)c2)[nH]1`: the MIC against Escherichia coli [1], in the experiment on Bacillus subtilis, in the experiment on Staphylococcus aureus and in the experiment on Escherichia coli [2] was above 32 µg/mL each time.

Take `CS(=O)(=O)c1nc(-c2cc(Cl)cc(Cl)c2)c(-c2cc(Cl)cc(Cl)c2)[nH]1`: the MIC in the experiment on Escherichia coli [1] was above 32 µg/mL; in the experiment with Bacillus subtilis, 4 µg/mL (≈ 9.17 µM); with Staphylococcus aureus it was 4 µg/mL (≈ 9.17 µM); in the experiment on Escherichia coli [2], 4 µg/mL (≈ 9.17 µM).

With `FC(F)(F)c1nc(-c2cc(Cl)cc(Cl)c2)c[nH]1`, the MIC was above 32 µg/mL in the experiment on Escherichia coli [1], 16 µg/mL (≈ 56.9 µM) in the experiment on Bacillus subtilis, 16 µg/mL (≈ 56.9 µM) with Staphylococcus aureus and 8 µg/mL (≈ 28.5 µM) with Escherichia coli [2].

Regarding `Nc1nc(-c2cc(Cl)cc(Cl)c2)c(-c2cc(Cl)cc(Cl)c2)[nH]1`, the MIC is above 32 µg/mL in the experiment with Escherichia coli [1], 4 µg/mL (≈ 10.7 µM) against Bacillus subtilis, 2 µg/mL (≈ 5.36 µM) in the experiment with Staphylococcus aureus and 8 µg/mL (≈ 21.4 µM) against Escherichia coli [2].
